Results reported in patent publication US11712433B2, “Compositions comprising PKM2 modulators and methods of treatment using the same” (priority 2019, dated 2023).

Assays:
[1] = test system: A549 cells; assay: GSH-Glo glutathione levels in A549 cells (Example 10); format: cell-based; details: concentration of 10, 24 hours, relative to DMSO
Procedure: A549 cells were prepared according to Example 3 above. […] Cells were treated for 24 hours, and then glutathione levels were determined using a GSH-Glo assay kit and procedure from Promega (catalog #V6912).

[2] = test system: A549 lung cancer cells; assay: A549 xenograft, traditional versus serine- and glycine-depleted diet (Example 4); format: in vivo, athymic nude mice; details: 100 mpk oral gavage qd x 21
Description: The traditional diet control was the Baker Amino Acid diet (catalog #5CC7, Test Diet) and the depleted diet was a modified Baker Amino Acid diet which compensated for serine and glycine depletion with increases in all remaining amino acids (catalog #5BJX, Test Diet).

[3] = test system: MC38 tumors; assay: Metabolite levels in treated versus vehicle-treated MC38 tumors; format: in vivo, mice; details: treated compared to vehicle-treated MC38 tumors
Description: Potential downstream biomarkers, including metabolism, immune gene alterations and immune phenotyping are currently under evaluation using LC-MS/MS, NanoString and flow cytometry.

Structure (SMILES): Nc1cccc(F)c1CN(CCC1CCS(=O)(=O)CC1)C(=O)c1cc(C(F)(F)F)n[nH]1 [compound of Structure (I)]
- glutathione levels [1]: decreased levels of glutathione
- body weight [2]: no significant body weight reduction or fluctuation
- tumor volume ([2]; serine- and glycine-depleted diet versus traditional diet): best reduction of tumor volume
- levels of glucose 6-phosphate in tumors [3]: decreased
- levels of glucose in tumors [3]: Increased
- levels of lactate in tumors [3]: decreased
- levels of phosphoenolpyruvate in tumors [3]: decreased
- levels of phosphoglycerate in tumors [3]: decreased
